Experiment [1] concerns retrogradely labeled D1-MSNs. The experiment can be described thus: Striatal slice whole-cell recordings of retrogradely labeled MSNs. The format is cell-based, mice. As to conditions: AAV8R12-G88P3-HA-hM3Dq-2A-EYFP; CNO 10 μM. The source says:
Mice from different groups were anesthetized with […] isoflurane, and then decapitated. The brain was quickly extracted and placed in ice-cold N-methyl-D-glucamine (NMDG) cutting solution containing (in mM): 92 NMDG, 2.5 KCl, 25 NaHCO3, 1.25 NaH2PO4, 4.5 D-Glucose, 20 HEPES, 5 L-ascorbic acid, 3 Na-pyruvate, 2 Thiourea, 10 MgSO4, 0.5 CaCl2). The pH was adjusted to 7.2±0.1 using HCl and the osmolarity was adjusted to 305±5 mosmol/L using NMDG. The solution was bubbled with 95% O2/5% CO2 prior to use. Coronal striatum slices were cut in 250-[…] thickness with a vibratome slicer (Leica, VT1200 S), and then incubated in artificial cerebrospinal fluid (aCSF) saturated with 95% O2/5% CO2 for at least 45 min at 37° C. before recording. The aCSF contains (in mM) 125 NaCl, 1.25 KCl, 25 NaHCO3, 1.25 KH2PO4, 25 D-Glucose, 2 CaCl2) and 1 MgCl2, supplemented with 2 mM Na-pyruvate, 3 mM Myo-inositol and 0.4 mM L-ascorbic acid.
The acute striatum slice was transferred to the recording chamber with a constant perfusion of oxygenized aCSF at the rate of 3 ml/min. Neurons were visualized using an upright microscope (Olympus, BX-51) with a 40× water immersion objective at room temperature (˜25° C.). […] Neurons were quickly visualized under fluorescence microscope and then patch clamp were achieved under infrared light illumination and CCD camera. […]

The target in another experiment is T1, rM3Ds (Rattus norvegicus, UniProt P08483, A177S/A238G/A489L/DEL261-437/DEL441-478/E258S/I253V/I483M/INS256[…]/K178L/K182A/K255R/K484R/K486H/L173F/L482A/M480V/R171S/R176Q/R179M/S481M/T174R/T181R/T257A/Y148C).
T1 sequence (P08483 with tags, fused parts or gaps Y148C/R171S/L173F/T174R/R176Q/A177S/K178L/R179M/T181R/K182A/A238G/I253V/K255R/INS256[…]/T257A/E258S/DEL261-437/DEL441-478/M480V/S481M/L482A/I483M/K484R/K486H/A489L): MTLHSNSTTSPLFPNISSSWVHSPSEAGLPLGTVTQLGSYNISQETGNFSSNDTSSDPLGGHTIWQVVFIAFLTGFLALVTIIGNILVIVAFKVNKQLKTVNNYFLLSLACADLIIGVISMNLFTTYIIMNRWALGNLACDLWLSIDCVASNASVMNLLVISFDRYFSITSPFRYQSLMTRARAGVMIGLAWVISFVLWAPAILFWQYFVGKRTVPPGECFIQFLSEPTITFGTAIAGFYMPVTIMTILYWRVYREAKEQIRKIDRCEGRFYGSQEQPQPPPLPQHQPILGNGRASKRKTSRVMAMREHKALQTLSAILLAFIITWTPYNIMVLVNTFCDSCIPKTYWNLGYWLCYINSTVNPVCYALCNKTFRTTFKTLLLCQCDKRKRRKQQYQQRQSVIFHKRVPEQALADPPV
Kind of experiment: Electrophysiological recording in caudate/putamen after intramuscular CNO, rM3Ds macaques. The experiment is classed as in vivo. On the procedure:
Electrophysiological recording was performed through a recording chamber while the monkey was anesthetized. Neural responses were recorded by a 16-channel linear probe (Plexon Inc, Uprobe) driven by a mechanical microdrive (Alpha Omega, FlexMT). Signals were passed through a head stage (Plexon Inc, HST/16V-G20 LN) and then split and filtered between 300 Hz and 5 kHz to identify spiking activity with an amplifier system (Plexon Inc, OmniPlex). Detected spikes were then sorted by commercially available software (Plexon Inc, Offline Sorter) for further analysis. To quantify the effect of CNO/DCZ injection, neural activity was recorded for 60 minutes following CNO/DCZ injection. The response time-course for each channel was obtained by counting the spikes within every 10-minute window and then normalizing to the maximal.
To determine the effect of CNO/DCZ injection on the direction of signal change, we performed Pearson correlation between neural responses and time using the ‘corr’ function in Matlab, which generates the correlation coefficient ‘r’ and significant level ‘p’. A neuron was considered to have “Increased” activity when r>0 and p<[…]; and considered to have “Decreased” activity when r<0 and p<0.05. Otherwise, neurons were considered to be “Unchanged” in their neural activities. The responses of all increased neurons were then averaged after being normalized by the maximal response (Crowe et al., 2014; Dai and Wang, 2018; Hirokawa et al., 2019) following CNO/DCZ injection, and then plotted as a function of time to generate the normalized population response. […]

The mark [2] stands for this setting: 38 total cells in the caudate/putamen.
Where [3] appears, read: monkey CM048, 38 cells in caudate.

The structures appear in SMILES notation.

Turning to `C[N+]1([O-])CCN(C2=Nc3cc(Cl)ccc3Nc3ccccc32)CC1` [CNO, clozapine N-oxide], the “excitability of transduced MSNs” value in experiment [1] was “augmentation of excitability”. Besides, on rM3Ds (setting [2]), the “cells activated (FIG. 12N)” value was 50%, the “cells inactivated (FIG. 12N)” value was 13.2% and the “cells unchanged (FIG. 12N)” value is recorded as 36.8%. Further, at rM3Ds (anesthetized macaques, AAV8R12-G88P7-HA-rM3Ds-2A-Cre), the “neuronal activity in retrogradely labeled D1-MSNs (opto-tagging)” value is “effectively induced an increase of neuronal activity”. For the same molecule, on rM3Ds (setting [3]), the “cells activated (FIG. 12F)” value came out at 65.8%, the “cells inactivated (FIG. 12F)” value came to 7.9% and the “cells unchanged (FIG. 12F)” value stood at 26.3%.

Source of the values: patent publication US20250382588A1, “CHIMERIC AAV AND USES THEREOF” (priority 2023, published 2025).
